According to the supplement of paper PMC10307832:

Key:
Experiment in all cases: relative viability (nuclei count vs DMSO), 5 days (fraction); higher = more cells survive
[1] = compound: CC(C)(C)c1nc(-c2cccc(NS(=O)(=O)c3c(F)cccc3F)c2F)c(-c2ccnc(N)n2)s1 [Dabrafenib] + Nc1nc2[nH]cc(CCc3ccc(C(=O)N[C@@H](CCC(=O)O)C(=O)O)cc3)c2c(=O)[nH]1 [Pemetrexed] (partner 0.2 µM)
In short: (§1)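 Lung cancer cell lines were seeded in 1536-well plates and dosed by pin tool the next day, with either a single drug or a fixed anchor-drug dose combined with five library-drug doses (not always all listed) spaced in √10 steps. Five days later, one step fixed the cells and stained their nuclei (final 0.05% Triton X-100, 1% formaldehyde, 1 ug/ml Hoechst), and nuclei were counted on 4× images. Relative viability is the nuclei count in treated wells divided by the count in vehicle wells, and each value is the median of duplicate plates.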

[2] = compound: NC(=O)c1ccc(N(C(N)=O)c2c(F)cccc2F)nc1-c1ccc(F)cc1F [VX-702] + CC(=O)Nc1cccc(-n2c(=O)n(C3CC3)c(=O)c3c(Nc4ccc(I)cc4F)n(C)c(=O)c(C)c32)c1 [Trametinib] (partner 0.02 µM)
In short: as §1

[3] = compound: NC(=O)c1ccc(N(C(N)=O)c2c(F)cccc2F)nc1-c1ccc(F)cc1F [VX-702] + COc1cc2c(Oc3ccc(NC(=O)C4(C(=O)Nc5ccc(F)cc5)CC4)cc3F)ccnc2cc1OCCCN1CCOCC1 [Foretinib] (partner 0.25 µM)
In short: as §1

[4] = compound: NC(=O)c1ccc(N(C(N)=O)c2c(F)cccc2F)nc1-c1ccc(F)cc1F [VX-702] + Nc1nc2[nH]cc(CCc3ccc(C(=O)N[C@@H](CCC(=O)O)C(=O)O)cc3)c2c(=O)[nH]1 [Pemetrexed] (partner 0.2 µM)
In short: as §1

| Cell Line | relative viability ([1]; first compound 0.009487 µM) | relative viability ([1]; first compound 0.03 µM) | relative viability ([1]; first compound 0.09487 µM) | relative viability ([1]; first compound 0.3 µM) | relative viability ([2]; first compound 0.02 µM) | relative viability ([2]; first compound 0.2 µM) | relative viability ([2]; first compound 0.6325 µM) | relative viability ([2]; first compound 2 µM) | relative viability ([3]; first compound 0.02 µM) | relative viability ([3]; first compound 0.2 µM) | relative viability ([3]; first compound 0.6325 µM) | relative viability ([3]; first compound 2 µM) | relative viability ([4]; first compound 0.02 µM) | relative viability ([4]; first compound 0.2 µM) | relative viability ([4]; first compound 0.6325 µM) | relative viability ([4]; first compound 2 µM) | relative viability ([1]; first compound 0.003 µM) |
| --- | --- | --- | --- | --- | --- | --- | --- | --- | --- | --- | --- | --- | --- | --- | --- | --- | --- |
| NCI-H441 | 0.232 | 0.255 | 0.259 | 0.263 | 0.349 | 0.386 | 0.351 | 0.538 | 0.955 | 0.774 | 0.984 | 1.12 | 0.24 | 0.233 | 0.273 | 0.238 | – |
| NCI-H460 | 0.0868 | 0.0634 | 0.0648 | 0.0684 | 0.209 | 0.172 | 0.166 | 0.0854 | 1.06 | 0.998 | 1.12 | 1.08 | 0.0627 | 0.0509 | 0.055 | 0.057 | 0.0599 |
| NCI-H520 | 0.6 | 0.625 | 0.669 | 0.652 | 0.712 | 0.799 | 0.589 | 0.649 | 0.876 | 0.73 | 0.607 | 0.744 | 0.713 | 0.486 | 0.636 | 0.765 | 0.697 |
| NCI-H522 | 1.08 | 0.833 | 1.07 | 0.989 | 0.736 | 0.759 | 0.708 | 0.74 | – | – | – | – | 1.08 | 0.891 | 0.971 | 0.999 | – |
| NCI-H596 | 0.492 | 0.44 | 0.579 | 0.469 | 0.908 | 0.832 | 0.835 | 0.886 | 0.79 | 0.82 | 1.11 | 0.992 | 0.535 | 0.455 | 0.567 | 0.534 | – |
| NCI-H647 | 0.186 | 0.167 | 0.159 | 0.16 | 0.555 | 0.571 | 0.497 | 0.678 | 1.22 | 1.08 | 1 | 1.4 | 0.174 | 0.172 | 0.133 | 0.144 | 0.187 |
| NCI-H727 | – | – | – | – | 0.387 | 0.381 | 0.382 | 0.359 | 0.936 | 0.806 | 0.824 | 0.813 | – | – | – | – | – |
| NCI-H1299 | – | – | – | – | – | – | – | – | 1.15 | 1.14 | 1.15 | 1.22 | – | – | – | – | – |
| NCI-H1563 | 0.836 | 0.591 | 0.822 | 0.744 | – | – | – | – | 1.04 | 0.914 | 1 | 0.822 | 0.751 | 0.785 | 0.601 | 0.639 | 0.667 |
| NCI-H1623 | – | – | – | – | – | – | – | – | 0.819 | 0.81 | 0.835 | 0.744 | – | – | – | – | – |
| NCI-H1648 | 0.781 | – | 0.654 | 0.738 | 0.395 | 0.579 | 0.593 | 0.435 | – | – | – | – | 0.737 | 0.617 | 0.75 | 0.818 | 0.746 |
| NCI-H1703 | – | – | – | – | – | – | – | – | 0.32 | 0.367 | 0.325 | 0.395 | – | – | – | – | – |
| NCI-H1792 | 1.03 | 0.622 | 0.723 | 0.525 | 0.425 | 0.394 | 0.397 | 0.482 | – | – | – | – | 0.815 | 0.777 | 0.881 | 0.862 | – |
